Values joined by “and” are separate entries in the source; they are usually repeats but may differ in a detail not shown here. Identical values can stand only once.
What was measured:
NCI-28H cells [1] = assay: Cytotoxicity assay (MTS) of NCI-28H cells: doxorubicin, cisplatin, paclitaxel, talc, talc bound to drugs (Example 21); assay type: cell-based; conditions: for AVERAGE: cells + DOX / % survival from untreated by DOX cells / % survival (cells + drug) / Average readings: cells + drug / Average reading: cells + cisplatin / % survival from untreated cells (cells + cisplatin): NCI-28H cells; for AVERAGE: cells + DOX / Average readings: cells + drug / Average reading: cells + cisplatin: absorbance 490 nm
Procedure: Read absorbance (MTS assay) and calculate cells survival rate. Compare survival rate between each formulation.
1. Set up 3 cytotoxicity plates for Day 2 experiment: trypsinize NCI-28H cells (T-75 flask, passage 12): • Remove old medium, wash cells with 7 ml DPBS, remove DPBS, add 2 ml trypsin, incubate plates for 1-2′, when cells detached add 6 ml fresh medium, mix cells and medium. • Count cells under the microscope using the glass slide. […] If we need 200 wells, in each well will be 5,000 cells in 0.1 ml; so total we need 1,000,000 cells in 20 ml. […] In 50 ml Falcon tube, combine 16.6 ml fresh medium and 3.4 ml cells. Gently mix.
3. […] Final solution is 500 μL of 20 μM.
(§1) 1. Centrifuge tubes at 3200 rpm for 3 min. Take out supernatant.
6. Check the plate and start incubation at 37° C./5% CO2
3. Wash cells 1×300 μL media, remove final wash.

NCI-2052H cells = assay: Cytotoxicity assay (MTS) of NCI-2052H cells: bleomycin, mitomycin, doxorubicin, paclitaxel, talc, talc bound to drugs (Example 23); assay type: cell-based; conditions: for Average reading: cells + drug, paclitaxel: absorbance 490 nm
NCI-28H cells [2] = assay: Cytotoxicity assay (MTS) of NCI-28H cells: carboplatin, mitomycin, gemcitabine, talc, talc bound to drugs (Example 22); conditions: for % survival from untreated cells: cells + drug, carboplatin / Average reading: cells + drug, carboplatin / % survival from untreated cells: cells + drug, gemcitabine / Average reading: cells + drug, gemcitabine: NCI-28H cells; for Average reading: cells + drug, carboplatin / Average reading: cells + drug, gemcitabine: absorbance 490 nm
Procedure: Read absorbance (MTS assay) and calculate cells survive rate. Compare survival rate
1. Set up 3 cytotoxicity plates for tomorrow experiment: trypsinize NCI-28H cells (T-75 flask, passage 12): • Remove old medium, wash cells with 7 ml DPBS, remove DPBS, add 2 ml trypsin, incubate plates for 1-2′, when cells detached add 6 ml fresh medium, mix cells and medium. • Count cells under the microscope using the glass slide. […] If we need 200 wells, in each well will be 5,000 cells in 0.1 ml; so total we need 1,000,000 cells in 20 ml.
2. […] Final solution is 500 μL of 500 μM carboplatin.
4. […] Final solution is 500 μL of 200 μM Gemcitabine.
as §1
3. Add 100 μL of each 8 preparations of diluted carboplatin (step 1 and 2) to the proper wells according to a plate layout.
4. Add 100 μL of each 8 preparations of diluted Gemcitabine (step 1, 2, 3) to the proper wells according to a plate layout.
6. Check the plate and start incubation at 37° C./5% CO2.
3. Wash all cells 1×300 μL DPBS, remove final wash.

## COc1cccc2c1C(=O)c1c(O)c3c(c(O)c1C2=O)C[C@@](O)(C(=O)CO)C[C@@H]3O[C@H]1C[C@H](N)[C@H](O)[C@H](C)O1 [DOX]
NCI-28H cells [1]; 125 nM DOX
  % survival NCI-28H cells after different treatment (compare to untreated cells): 70%
NCI-28H cells [1]; DOX 0.000064 μM
  AVERAGE: cells + DOX: 1.18
NCI-28H cells [1]; DOX 0.2 μM
  AVERAGE: cells + DOX: 0.89
NCI-28H cells [1]; DOX 1 μM
  AVERAGE: cells + DOX: 0.67
NCI-28H cells [1]; DOX 5 μM
  AVERAGE: cells + DOX: 0.63

## COc1cccc2c1C(=O)c1c(O)c3c(c(O)c1C2=O)C[C@@](O)(C(=O)CO)C[C@@H]3O[C@H]1C[C@H](N)[C@H](O)[C@H](C)O1 [Dox]
NCI-28H cells [1]; Dox 0.064 nM
  % survival from untreated by DOX cells: 86.3%
NCI-28H cells [1]; Dox 8 nM
  % survival from untreated by DOX cells: 83.4%
NCI-28H cells [1]; Dox 40 nM
  % survival from untreated by DOX cells: 77.4%
NCI-28H cells [1]; Dox 200 nM
  % survival from untreated by DOX cells: 65.0%
NCI-28H cells [1]; Dox 1000 nM
  % survival from untreated by DOX cells: 48.6%
NCI-28H cells [1]; Dox 5000 nM
  % survival from untreated by DOX cells: 46.2%

## CC(=O)O[C@H]1C(=O)[C@@]2(C)[C@H]([C@H](OC(=O)c3ccccc3)[C@]3(O)C[C@H](OC(=O)[C@H](O)[C@@H](NC(=O)c4ccccc4)c4ccccc4)C(C)=C1C3(C)C)[C@]1(OC(C)=O)CO[C@@H]1C[C@@H]2O [Paclitaxel]
NCI-28H cells [1]; Paclitaxel 0.13 nM
  % survival (cells + drug): 102.50%
  Average readings: cells + drug: 1.56
NCI-28H cells [1]; Paclitaxel 0.68 nM
  % survival (cells + drug): 86.98%
  Average readings: cells + drug: 1.33
NCI-28H cells [1]; Paclitaxel 3.5 nM
  % survival (cells + drug): 89.85%
  Average readings: cells + drug: 1.37
NCI-28H cells [1]; Paclitaxel 16 nM
  % survival (cells + drug): 84.47%
  Average readings: cells + drug: 1.29
NCI-28H cells [1]; Paclitaxel 80 nM
  % survival (cells + drug): 71.81%
  Average readings: cells + drug: 1.10
NCI-28H cells [1]; Paclitaxel 400 nM
  % survival (cells + drug): 66.39%
NCI-28H cells [1]; Paclitaxel 2000 nM
  % survival (cells + drug): 62.43%
NCI-28H cells [1]; Paclitaxel 10,000 nM
  % survival (cells + drug): 60.71%
NCI-2052H cells; Paclitaxel 0.256 nM
  Average reading: cells + drug, paclitaxel: 1.4273
NCI-2052H cells; Paclitaxel 6.4 nM
  Average reading: cells + drug, paclitaxel: 1.54
NCI-2052H cells; Paclitaxel 32 nM
  Average reading: cells + drug, paclitaxel: 0.5818
NCI-2052H cells; Paclitaxel 160 nM
  Average reading: cells + drug, paclitaxel: 0.4361
NCI-2052H cells; Paclitaxel 800 nM
  Average reading: cells + drug, paclitaxel: 0.4326
NCI-2052H cells; Paclitaxel 4000 nM
  Average reading: cells + drug, paclitaxel: 0.553
NCI-2052H cells; Paclitaxel 20,000 nM
  Average reading: cells + drug, paclitaxel: 0.1647
NCI-2052H cells; paclitaxel 0.256 (nM per Table 97)
  % survival from untreated cells: 83.84%
NCI-2052H cells; paclitaxel 1.28 (nM per Table 97)
  % survival from untreated cells: 93.24%
NCI-2052H cells; paclitaxel 6.4 (nM per Table 97)
  % survival from untreated cells: 90.43%
NCI-2052H cells; paclitaxel 32 (nM per Table 97)
  % survival from untreated cells: 34.17%
NCI-2052H cells; paclitaxel 160 (nM per Table 97)
  % survival from untreated cells: 25.61%
NCI-2052H cells; paclitaxel 800 (nM per Table 97)
  % survival from untreated cells: 25.41%
NCI-2052H cells; paclitaxel 4000 (nM per Table 97)
  % survival from untreated cells: 32.48%
NCI-2052H cells; paclitaxel 20,000 (nM per Table 97)
  % survival from untreated cells: 9.67%

## N.N.O=C([O-])C1(C(=O)[O-])CCC1.[Pt+2] [carboplatin]
NCI-28H cells [2]; carboplatin 0.006 μM
  % survival from untreated cells: cells + drug, carboplatin: 90.84% and 94.28%
  Average reading: cells + drug, carboplatin: 1.504
NCI-28H cells [2]; carboplatin 0.8 μM
  % survival from untreated cells: cells + drug, carboplatin: 85.98% and 87.53%
  Average reading: cells + drug, carboplatin: 1.4238
NCI-28H cells [2]; carboplatin 4 μM
  % survival from untreated cells: cells + drug, carboplatin: 96.93% and 93.62%
  Average reading: cells + drug, carboplatin: 1.605
NCI-28H cells [2]; carboplatin 20 μM
  % survival from untreated cells: cells + drug, carboplatin: 104.81% and 99.20%
  Average reading: cells + drug, carboplatin: 1.7355
NCI-28H cells [2]; carboplatin 100 μM
  % survival from untreated cells: cells + drug, carboplatin: 83.82% and 79.53%
  Average reading: cells + drug, carboplatin: 1.388
NCI-28H cells [2]; carboplatin 500 μM
  % survival from untreated cells: cells + drug, carboplatin: 37.38% and 35.14%
  Average reading: cells + drug, carboplatin: 0.6189

## N.N.[Cl][Pt][Cl] [cisplatin]
NCI-28H cells [1]; Cisplatin 0.0013 μM
  Average reading: cells + cisplatin: 1.37
NCI-28H cells [1]; Cisplatin 0.0064 μM
  Average reading: cells + cisplatin: 1.19
NCI-28H cells [1]; Cisplatin 0.8 μM
  Average reading: cells + cisplatin: 1.23
NCI-28H cells [1]; Cisplatin 4 μM
  Average reading: cells + cisplatin: 1.18
NCI-28H cells [1]; Cisplatin 20 μM
  Average reading: cells + cisplatin: 0.48
NCI-28H cells [1]; Cisplatin 100 μM
  Average reading: cells + cisplatin: 0.59
NCI-28H cells [1]; cisplatin 0.0013 (μM per Table 64)
  % survival from untreated cells (cells + cisplatin): 91.07%
NCI-28H cells [1]; cisplatin 0.0064 (μM per Table 64)
  % survival from untreated cells (cells + cisplatin): 79.21%
NCI-28H cells [1]; cisplatin 0.032 (μM per Table 64)
  % survival from untreated cells (cells + cisplatin): 76.66%
NCI-28H cells [1]; cisplatin 0.16 (μM per Table 64)
  % survival from untreated cells (cells + cisplatin): 79.74%
NCI-28H cells [1]; cisplatin 0.8 (μM per Table 64)
  % survival from untreated cells (cells + cisplatin): 82.09%
NCI-28H cells [1]; cisplatin 4 (μM per Table 64)
  % survival from untreated cells (cells + cisplatin): 78.41%
NCI-28H cells [1]; cisplatin 20 (μM per Table 64)
  % survival from untreated cells (cells + cisplatin): 31.99%
NCI-28H cells [1]; cisplatin 100 (μM per Table 64)
  % survival from untreated cells (cells + cisplatin): 39.35%

## Nc1ccn([C@@H]2O[C@H](CO)[C@@H](O)C2(F)F)c(=O)n1 [gemcitabine]
NCI-28H cells [2]
  cytotoxic effect on NCI-28H cells (comparison): clear cytotoxic effect
NCI-28H cells [2]; gemcitabine 0.0026 μM
  % survival from untreated cells: cells + drug, gemcitabine: 114.61%
  Average reading: cells + drug, gemcitabine: 2.034
NCI-28H cells [2]; gemcitabine 0.013 μM
  % survival from untreated cells: cells + drug, gemcitabine: 107.85%
  Average reading: cells + drug, gemcitabine: 1.914
NCI-28H cells [2]; gemcitabine 0.064 μM
  % survival from untreated cells: cells + drug, gemcitabine: 80.60%
  Average reading: cells + drug, gemcitabine: 1.43
NCI-28H cells [2]; gemcitabine 8 μM
  % survival from untreated cells: cells + drug, gemcitabine: 56.58%
  Average reading: cells + drug, gemcitabine: 1.004
NCI-28H cells [2]; gemcitabine 40 μM
  % survival from untreated cells: cells + drug, gemcitabine: 60.09%
  Average reading: cells + drug, gemcitabine: 1.0663
NCI-28H cells [2]; gemcitabine 200 μM
  % survival from untreated cells: cells + drug, gemcitabine: 52.70%
  Average reading: cells + drug, gemcitabine: 0.9352

## talc
NCI-28H cells [2]
  cytotoxic effect on NCI-28H cells (comparison): clear cytotoxic effect

From patent publication US20190216956A1, “COMPOSITIONS FOR RADIOTHERAPY AND USES THEREOF” (priority 2016, published 2019)
